This note sets out measurements from PubChem BioAssay (NCI).

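Five compound concentrations were applied to cells in 96-well plates for 48 hours; endpoints were derived by simple linear interpolation of the resulting dose-response curve. GI50 is the concentration that inhibits growth by half. Definition used: TGI = concentration required for complete inhibition of growth.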 Bounds are passed on as bounds.

What all share (assay): inhibition of tumour cell growth, NCI panel, 48 h
The subject of test [1] is COLO 205 colon.
Test [2] relates to EKVX NSCLC.
In test [3] the test system is HCC-2998 colon.
In test [4] the test system is HS 578T breast.
Test [5] deals with LOX IMVI melanoma.
Test [6] concerns NCI-H460 lung.
In test [7] the test system is NCI-H522 lung.
Test [8] deals with OVCAR-3 ovarian.
Test [9] deals with U251 CNS.
For test [10], the system named is MALME-3M melanoma.

On to `COC(=O)C(=O)C(C(=O)C(=O)Nc1ccc(Cl)cc1Cl)c1nc2ccc(Cl)cc2[nH]c1=O` (centres undefined), for which the TGI in test [1], in test [2], in [3], in test [4], in test [5] and in test [6] was above 100 µM throughout. Moreover, the TGI in [7], in test [8] and in test [9] was above 100 µM in each case.
Turning to `COc1cc(OC)cc(-c2n[nH]nc2-c2ccc3c(c2)OCO3)c1`, the GI50 in [3] was 2.15 µM; in [4] it was 0.442 µM; in test [5], 0.545 µM; in test [6], 0.335 µM; in test [8], 0.0745 µM; in test [9], 0.302 µM. For the same compound, the TGI in test [3] was 24.6 µM; in test [4] it was above 100 µM; in test [5], 87.1 µM; in [6] it was 28.7 µM; in test [8], 0.378 µM; in test [9], 11.2 µM.
For the compound `COc1ccc(OC)c(-c2cc(-c3ccc(Cl)cc3)nn2-c2ccc(S(N)(=O)=O)cc2)c1`, the GI50 in test [2] is 11.9 µM; in [3], 7.51 µM; in [4], 21.9 µM; in [6] it was 10.6 µM; in test [7], 7.99 µM; in [8], 22.1 µM. Besides, the TGI in test [2] came to 27.5 µM; in [3] it was 21.6 µM; in test [4], 63.1 µM; in test [6], 93 µM; in test [7], 45.3 µM; in [8], 39.8 µM.
In the case of `CCCCC#Cc1c(I)n(C2OC(CO[Si](C)(C)C(C)(C)C)C3OC(C)(C)OC32)c(=O)[nH]c1=O` (centres undefined), the GI50 is 15.3 µM in test [2]; 2.8 µM in test [3]; 11.7 µM in test [4]; 3.39 µM in [5]; 5.45 µM in [10]; 0.534 µM in test [7]. Moreover, the GI50 is 1.53 µM in test [8] and 21.9 µM in test [9]. The TGI was 28.7 µM in test [2]; 16.5 µM in [3]; 39.6 µM in test [4]; above 100 µM in test [5]; 24.8 µM in [10]; 1.95 µM in test [7]. Also, the TGI in test [8] was 2.86 µM; in test [9], above 100 µM.
Consider `CCSc1sc(-c2ccc(C)cc2)nc1[P+](c1ccccc1)(c1ccccc1)c1ccccc1`, for which the GI50 in [2] is 0.244 µM; in [3], 0.47 µM; in test [4], 0.394 µM; in [5], 0.267 µM; in test [10], 0.288 µM; in [6] it was 0.306 µM. Moreover, the GI50 was 0.304 µM in [7] and 0.3 µM in [8]. The TGI in test [2] is 0.904 µM; in test [3] it was 1.62 µM; in test [4], 2.05 µM; in test [5], 0.913 µM; in test [10], 1.06 µM; in [6], 1.12 µM. Besides, the TGI in [7] turned out to be 1.23 µM; in test [8], 1.18 µM.
In the case of `Nc1nc(Cl)cc2c1ncn2C1OC(CO)C(O)C1O` (centres undefined), the GI50 in [1], in test [2], in test [4], in test [5], in test [10] and in [6] was above 100 µM each time. Besides, the GI50 in [7], in test [8] and in test [9] was above 100 µM each time. Also, the TGI in test [1], in [2], in test [4], in test [5], in test [10] and in [6] was above 100 µM in each case. Also, the TGI in test [7], in test [8] and in test [9] was above 100 µM each time.
As for `COC(=O)C1=C(O)C(C(=O)OC)[C@@]2(O)[C@@H](C(=O)OC)C(c3ccccc3C(F)(F)F)C[C@@H]1[C@@H]2C(=O)OC` (some centres undefined), the GI50 is 0.175 µM in test [1]; 6.36 µM in test [2]; 14.2 µM in test [3]; 3.87 µM in [4]; 3.11 µM in test [6]; 16.8 µM in [7]. Further, the GI50 in test [8] was 1.69 µM; in test [9] it was 2.01 µM. Moreover, the TGI was 2.27 µM in test [1]; 19.4 µM in [2]; 27.2 µM in [3]; above 100 µM in [4]; 10.5 µM in test [6]; 33.2 µM in test [7]. Also, the TGI in [8] was found to be 4.14 µM; in test [9], 7.28 µM.
As to `Cc1ccc(NC(=O)C(=O)C2C(=O)C3=C(CC2(C)C)NC2C=CC=CC2S3)c(C)c1` (centres undefined), the TGI in [1], in [2], in test [3], in [4], in test [5] and in test [6] was above 100 µM throughout. Moreover, the TGI in test [7] and in [9] was above 100 µM each time.
As to `O=C(CCCCCn1c2ccccc2c2c3c(c4c5ccccc5[nH]c4c21)C(=O)N(O)C3=O)N1CCOCC1`, the GI50 is 2.3 µM in [1]; 4.62 µM in test [2]; 1.85 µM in test [3]; 2.78 µM in test [4]; 1.05 µM in test [5]; 2.26 µM in test [10]. Also, the GI50 in [6] was 2.16 µM; in test [7], 1.38 µM; in test [9], 2.26 µM. In addition, the TGI in [1] was 5.65 µM; in [2] it was 43.3 µM; in [3] it was 3.54 µM; in test [4] it was 7.95 µM; in [5], 2.57 µM; in test [10], 6.34 µM. Besides, the values for the TGI in test [6], in [7] and in test [9] were 4.69 µM, 3.14 µM and 5.59 µM, respectively.
For `S=c1sc2ccccc2n1CN1CCN(Cc2ccccc2)CC1`, the TGI in test [1], in test [2], in test [3], in test [4], in test [5] and in test [6] was above 100 µM throughout. The TGI in test [7], in test [8] and in test [9] was above 100 µM each time.
